Measurements taken from ChEMBL document CHEMBL3430912, “GSK Tres Cantos Anti-Kinetoplastid Screening (TCAKS) Data”.

Legend:
Trypanosoma cruzi [1] = assay: GSK_TCAKS: pIC50 Trypanosoma cruzi viability assay using beta-GAL activity. This assay was run at single shot at 5uM compound concentration per well. The biological reagents consisted of NIH-3T3 host cells and trypomastigotes parasitic cells; both cell types were set to a 3.3 * 10^5 cells/mL dilution in assay DMEM by means of a CASY cell counter device using a 60um capillary. 6 uL of the mixture were dispensed per well (about 1 * 10^3 host-cells and 1 * 10^3 parasites) with a Multidrop Combi dispenser. […] In all wells, the percentage of DMSO never exceeded 0.5%. Plates incubated for four days at 37C, 5% CO2. The substrate used for the assay fluorescence intensity (FLINT) readout was resorufin-beta-D-galactopiranoside (Sigma-Aldrich) at 5uM per well. It was diluted in PBS supplemented with the soft detergent Igepal (Fluka).; assay type: functional, organism-based, Mus musculus; settings: Tulahuen, NIH3T3
Trypanosoma cruzi [2] = assay: (§1) GSK_TCAKS: pIC50 Trypanosoma cruzi Imaging: Infected Cells. […] Cells were then washed once with PBS before infection. T. cruzi trypomastigotes, collected at days 5 to 8 after infection from LLC-MK2 parasite infected cultures, were allowed to swim out for 4h at 37C from a centrifuged pellet (2,500 rpm/10 min/room temperature). Trypomastigotes were then collected and counted in a CASY Cell Counter. Trypomastigotes, in supplemented DMEM, were added to H9c2 cultures in a multiplicity of infection of 1 and incubated for 18 h. Cells were washed once with PBS before incubation of the infected H9c2 monolayer with trypsin (Life-Technologies) to detach cells from the flask. Cells were counted in a CASY Cell Counter using a 150 um capillary and their density set at 5 * 10^4 cells per mL in supplemented assay DMEM. Infected H9c2 were dispensed into 384-well poly-lysine coated assay plates at 50uL per well using a Multidrop Combi dispenser. After seeding them, the plates were incubated at 37C, 5% CO2 for 72h. Cultures were then fixed and stained by addition of 50 uL of a solution containing 8% formaldehyde and 4 uM DRAQ5 DNA dye (BioStatus, UK) per well. […] Five images were collected per well for reliable statistical analysis. Automated image analysis was performed with a script developed on Acapella High Content Imaging and Analysis Software (PerkinElmer). Output: percentage of infected cells per well as a second infection marker.; assay type: functional, organism-based, Rattus norvegicus; settings: H9c2, 4 h
Trypanosoma cruzi [3] = assay: GSK_TCAKS: pIC50 Trypanosoma cruzi Imaging: Amastigotes/Cell. […] Cells were then washed once with PBS before infection. T. cruzi trypomastigotes, collected at days 5 to 8 after infection from LLC-MK2 parasite infected cultures, were allowed to swim out for 4h at 37C from a centrifuged pellet (2,500 rpm/10 min/room temperature). Trypomastigotes were then collected and counted in a CASY Cell Counter. Trypomastigotes, in supplemented DMEM, were added to H9c2 cultures in a multiplicity of infection of 1 and incubated for 18 h. Cells were washed once with PBS before incubation of the infected H9c2 monolayer with trypsin (Life-Technologies) to detach cells from the flask. Cells were counted in a CASY Cell Counter using a 150 um capillary and their density set at 5 * 10^4 cells per mL in supplemented assay DMEM. Infected H9c2 were dispensed into 384-well poly-lysine coated assay plates at 50uL per well using a Multidrop Combi dispenser. After seeding them, the plates were incubated at 37C, 5% CO2 for 72h. Cultures were then fixed and stained by addition of 50 uL of a solution containing 8% formaldehyde and 4 uM DRAQ5 DNA dye (BioStatus, UK) per well. […] Five images were collected per well for reliable statistical analysis. Automated image analysis was performed with a script developed on Acapella High Content Imaging and Analysis Software (PerkinElmer). Output: number of amastigotes per cell as infection level measurement.; assay type: functional, organism-based, Rattus norvegicus; settings: H9c2, 4 h
Trypanosoma cruzi [4] = assay: as §1, with “H2C9” for “Trypanosoma cruzi”, “H9c2 Host Cardiomyocytes.” for “Infected Cells.”, “Number” for “percentage”, “H9c2 Host Cardiomyocytes nuclei to determine drug-related cytotoxicity.” for “infected cells per well as a second infection marker.”; assay type: functional, organism-based, Rattus norvegicus; settings: H9c2, 4 h
Leishmania donovani [5] = assay: GSK_TCAKS: pIC50 Leishmania donovani viability assay using fluorescence intensity. Assay plates (1536-well) were prepared by adding 30nL per well of compound. For single shot assay, the final compound concentration was 5uM. […] Briefly, eGFP LdBOB axenic amastigotes were harvested, fixed and counted in a CASY cell counter (Roche-Applied Science). A final concentration of 1.5 * 10^5 cells per well were prepared in amastigote media containing 500 U/mL penicillin/streptomycin (Invitrogen) and 6uL was dispensed to each experimental well using a Multidrop Combi dispenser (Thermo Scientific). 6uL of assay media was dispensed to control columns used as reference for 100% compound response. Following incubation for 72 h at 37C, 5% CO2, 2 uL of resazurin was added to each well at a final concentration of 0.5 mM in phosphate buffered saline (PBS) with IGEPAL (Sigma-Aldrich), 0.05% (v/v).; assay type: functional, organism-based
Leishmania donovani [6] = assay: (§2) GSK_TCAKS: pIC50 Leishmania donovani Imaging: Infected Macrophages. Assay plates (384-well) were prepared by adding 250nL of compound to each well. For single shot assay, the final compound concentration was 5 uM. […] Automated image analysis was performed with a script developed on Acapella High Content Imaging and Analysis Software (PerkinElmer). Output: Percent of infected macrophage cells were reported for each well.; assay type: functional, organism-based, Homo sapiens; settings: THP-1
Leishmania donovani [7] = assay: as §2, with “Amastigotes/Macrophages.” for “Infected Macrophages.”, “Average number” for “Percent”, “amastigotes per” for “infected”, “cell” for “cells”; assay type: functional, organism-based, Homo sapiens; settings: THP-1
Leishmania donovani [8] = assay: as §2, with “THP-1 Host” for “Infected”, “THP-1 cell count” for “Percent of infected macrophage cells”; assay type: functional, organism-based, Homo sapiens
[9] = system: Trypanosoma brucei brucei; assay: GSK_TCAKS: pIC50 Trypanosoma brucei viability assay using fluorescence intensity. Assay plates (1536-well) were prepared by dispensing 25nL of compound solution per well using an Echo acoustic dispenser (Labcyte).; assay type: functional, organism-based; settings: Lister 427, 2 h
[10] = system: Trypanosoma brucei brucei; assay: GSK_TCAKS: pIC50 Trypanosoma brucei viability assay using luminiscence. Assay plates (1536-well) were prepared. T. brucei cultures were harvested and counted in a CASY cell counter. A parasite suspension was prepared at a final concentration of 5 * 10^4 cells/mL in complete HMI9 medium and 6uL was dispensed to all wells containing compounds using a Multidrop Combi dispenser. 6uL of HMI9 media with 0.4% DMSO were dispensed to control columns. Plates were incubated for 24 h at 37C, 5% CO2 then tempered for 10 min at room temperature. ATP content was quantified by adding 4 uL of CellTiter-Glo Reagent (Promega) according to the manufacturer's instructions. Luminescence was measured using a ViewLux.; assay type: functional, organism-based; settings: Lister 427, CASY
[11] = GSK_TCAKS: pIC50 HepG2 human cell line viability assay using luminiscence. […] Seeding density was checked to ensure that new mono-layers were not more than 50% confluent at the time of harvesting. Cell suspension was added to 500 mL of the same medium at a final density of 1.2 * 10^5 cells/mL. This cell suspension was dispensed (25 uL, 3000 cells per well) into 384-well clear-bottom plates using a Multidrop Combi dispenser. Prior to addition of the cell suspension, the screening compounds (250 nL) were pre-dispensed into the plates with an Echo liquid handler. Plates were incubated for 48 h at 37C, 5% CO2. After incubation, plates equilibrated at room temperature for 30 min before proceeding to develop the luminescent signal. The signal developer, CellTiter-Glo Reagent, was allowed to equilibrate at room temperature for 30 min and added to the plates (25uL per well) using a Multidrop Combi dispenser. Plates were left for 10 min at room temperature for stabilization and then read using a ViewLux.; assay type: toxicity, cell-based
[12] = molecular target: Sterol 14-alpha demethylase (Trypanosoma cruzi (strain CL Brener), UniProt Q7Z1V1); assay: GSK_TCAKS: pIC50 CYP51 from Trypanosoma cruzi.; assay type: functional
Chain of Sterol 14-alpha demethylase (Q7Z1V1 whole entry): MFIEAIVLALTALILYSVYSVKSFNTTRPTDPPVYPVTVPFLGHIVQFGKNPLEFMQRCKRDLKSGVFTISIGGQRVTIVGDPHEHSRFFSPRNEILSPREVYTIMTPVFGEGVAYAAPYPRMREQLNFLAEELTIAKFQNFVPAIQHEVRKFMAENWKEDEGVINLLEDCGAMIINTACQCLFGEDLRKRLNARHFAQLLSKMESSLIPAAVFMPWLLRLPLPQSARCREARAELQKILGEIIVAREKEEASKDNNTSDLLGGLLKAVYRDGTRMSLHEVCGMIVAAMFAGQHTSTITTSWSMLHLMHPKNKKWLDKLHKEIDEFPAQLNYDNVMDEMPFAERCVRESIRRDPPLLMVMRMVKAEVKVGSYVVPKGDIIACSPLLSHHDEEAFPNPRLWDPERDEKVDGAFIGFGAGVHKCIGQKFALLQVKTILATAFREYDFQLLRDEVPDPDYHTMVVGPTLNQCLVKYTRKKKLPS

| SMILES | IC50 (Trypanosoma cruzi [1]) | IC50 (Trypanosoma cruzi [2]) | IC50 (Trypanosoma cruzi [3]) | IC50 (Trypanosoma cruzi [4]) | IC50 (Leishmania donovani [5]) | IC50 (Leishmania donovani [6]) | IC50 (Leishmania donovani [7]) | IC50 (Leishmania donovani [8]) | IC50 [9] | IC50 [10] | IC50 at 48 h [11] | IC50 [12] |
| --- | --- | --- | --- | --- | --- | --- | --- | --- | --- | --- | --- | --- |
| Nc1nc(-c2ccccn2)nc(N)c1Cc1c(F)cccc1Cl | 1.58 µM | 2 µM | 1.58 µM | 1.26 µM | 2.51 µM | 1.26 µM | 1 µM | 31.6 µM | 2.51 µM | 2 µM | 20 µM | > 100 µM |
| Cn1ccnc1-c1nc(NCc2ccccc2Cl)cc(C2CC2)n1 | 0.631 µM | 0.794 µM | 0.794 µM | 0.631 µM | 1.58 µM | 0.631 µM | 0.2 µM | 7.94 µM | 2 µM | 1.58 µM | 20 µM | 39.8 µM |
| Oc1cccnc1-c1nc(Cc2ccccc2)n[nH]1 | 6.31 µM | 7.94 µM | 6.31 µM | 15.8 µM | 2 µM | 3.16 µM | 2 µM | 15.8 µM | 5.01 µM | 10 µM | 79.4 µM | > 100 µM |
| O=C(Nc1nnc(-c2ccccn2)[nH]1)C1CC1c1ccccc1 (centres undefined) | 15.8 µM | 20 µM | 15.8 µM | > 50.1 µM | 12.6 µM | 7.94 µM | 7.94 µM | 20 µM | > 12.6 µM | 20 µM | > 100 µM | > 100 µM |
| CCOc1ccc(NC(=O)c2ccc(NC(=O)NC3CCCCC3)cc2)cc1 | 31.6 µM | > 50.1 µM | > 50.1 µM | > 50.1 µM | > 50.1 µM | 7.94 µM | 6.31 µM | 3.98 µM | 0.2 µM | 0.501 µM | > 100 µM | > 100 µM |
| COc1ccc(S(=O)(=O)Nc2ccc(CN3CCN(C(=O)c4cccc(C#N)c4)CC3)cc2)cc1 | 1 µM | 1 µM | 0.794 µM | > 50.1 µM | 31.6 µM | > 50.1 µM | > 50.1 µM | > 50.1 µM | 0.398 µM | 0.631 µM | > 100 µM | > 100 µM |
| Cc1ccc(S(=O)(=O)Nc2ccc(CN3CCN(C(=O)c4cccc(C)c4)CC3)cc2)cc1 | 0.501 µM | 0.316 µM | 0.316 µM | > 50.1 µM | 25.1 µM | 39.8 µM | 31.6 µM | 39.8 µM | 0.251 µM | 0.501 µM | > 100 µM | 79.4 µM |
| Cc1ccc(Nc2nc(C3CCCN3Cc3cc[nH]n3)cs2)nc1 (centres undefined) | 0.794 µM | 2 µM | 2 µM | 10 µM | 12.6 µM | 1.58 µM | 1.26 µM | 25.1 µM | 0.794 µM | 3.98 µM | 31.6 µM | 6.31 µM |
| CC(c1ccccn1)N(C)Cc1nc2ccccc2n1C(C)C (centres undefined) | 1.58 µM | 6.31 µM | 2 µM | > 50.1 µM | 10 µM | 3.16 µM | 2 µM | 15.8 µM | 12.6 µM | 10 µM | 25.1 µM | 31.6 µM |
| CC1CCCCN1C(=O)NCCc1coc(-c2ccc(F)cc2)n1 (centres undefined) | 0.398 µM | 0.316 µM | 0.316 µM | > 50.1 µM | > 50.1 µM | > 50.1 µM | > 50.1 µM | > 50.1 µM | 0.126 µM | 0.158 µM | > 100 µM | > 100 µM |
| c1ccc(-c2nc(NC3CCCC3)c3ccccc3n2)nc1 | 2 µM | 0.794 µM | 2 µM | 0.501 µM | 3.98 µM | 2 µM | 1.26 µM | 20 µM | 6.31 µM | 6.31 µM | 15.8 µM | > 100 µM |
| COc1cc(F)c2ncc(F)c(CCN3CC[C@H](NCc4cc5c(cn4)OCS5)[C@@H](O)C3)c2c1 | 0.398 µM | 0.251 µM | 0.2 µM | > 50.1 µM | 25.1 µM | 15.8 µM | 12.6 µM | 15.8 µM | 0.251 µM | 0.501 µM | 50.1 µM | 31.6 µM |
| CN(Cc1nc2ccc(C(=O)NCC3CCCCC3)cc2[nH]1)C1CCCc2cccnc21 (centres undefined) | 0.501 µM | 0.631 µM | 0.316 µM | 5.01 µM | 3.16 µM | 0.501 µM | 0.398 µM | 6.31 µM | 0.794 µM | 0.316 µM | 15.8 µM | 39.8 µM |
| COc1ccc2ncc(Cl)c(CCN3CC[C@@H](NCc4cc5c(cn4)OCS5)[C@H](O)C3)c2n1 | 0.126 µM | 0.0794 µM | 0.0631 µM | 25.1 µM | 10 µM | 12.6 µM | 7.94 µM | 25.1 µM | 0.316 µM | 0.398 µM | 50.1 µM | 1 µM |
| COc1ccc2ncc(Cl)c(CCN3CC[C@H](NCc4cc5c(cn4)OCS5)[C@@H](O)C3)c2n1 | 0.126 µM | 0.158 µM | 0.1 µM | 10 µM | 2 µM | 1 µM | 0.501 µM | 6.31 µM | 0.316 µM | 0.631 µM | 25.1 µM | 7.94 µM |
| C[C@@H](Oc1cc(-n2cnc3ccc(O[C@H]4CCNC4)cc32)sc1C(N)=O)c1ccccc1Cl | 3.16 µM | 12.6 µM | 6.31 µM | 0.631 µM | > 50.1 µM | 7.94 µM | 5.01 µM | 6.31 µM | 0.251 µM | 0.794 µM | 15.8 µM | 1.26 µM |
| O=C(Cc1ccccc1)Nc1ccccc1C(=O)Nc1nccs1 | 39.8 µM | > 50.1 µM | > 50.1 µM | > 50.1 µM | > 50.1 µM | > 50.1 µM | > 50.1 µM | > 50.1 µM | 0.251 µM | 0.251 µM | > 100 µM | > 100 µM |
